Data as given in ChEMBL document CHEMBL5523732, “Structure-Guided Design of Potent Coronavirus Inhibitors with a 2-Pyrrolidone Scaffold: Biochemical, Crystallographic, and Virological Studies” (J Med Chem, 2024).

What was measured:
[1] = Inhibition of MERS-CoV 3CLpro using SG-QXL520 as substrate preincubated with compound for 30 mins followed by susbtrate addition and measured after 30 mins by FRET assay; parameters: species or system Middle East respiratory syndrome-related coronavirus
[2] = Cytotoxicity against cat CRFK cells incubated for 72 hrs by CytoTox 96 analysis; format: toxicity, cell-based, Felis catus
[3] = molecular target: Replicase polyprotein 1ab (Severe acute respiratory syndrome coronavirus 2, UniProt P0DTD1); test: Inhibition of full length N-terminal his6-tagged SARS-CoV-2 3CL protease using FAM-SAVLQ as substrate preincubated with compound for 30 mins followed by substrate addition and measured after 30 mins by FRET assay
SARS-CoV-2 = test: Antiviral activity against SARS CoV-2 Wuhan-Hu-1 infected in HEK293T cells incubated for 24 hrs; format: functional, organism-based; conditions: Severe acute respiratory syndrome coronavirus 2, Wuhan-Hu-1, HEK-293T

SMILES	IC50 [1] [nM]	CC50 at 72 h [2] [nM]	IC50 [3] [nM]	EC50 (SARS-CoV-2) [nM]
CC(C)C[C@H](NC(=O)OC[C@@H]1CCC(=O)N1C[C@H]1C[C@@H]2C=C[C@H]1C2)C(=O)N[C@@H](C[C@@H]1CCNC1=O)C(O)S(=O)(=O)O (stereo not given in full)	60	> 50000	450	
CC(C)C[C@H](NC(=O)OC[C@H]1CCC(=O)N1CC1CCCCC1)C(=O)N[C@H](C=O)C[C@@H]1CCNC1=O	70	> 50000	500	
CC(C)C[C@H](NC(=O)OCC1CCN(Cc2cccc(C(F)(F)F)c2)C1=O)C(=O)N[C@@H](C[C@@H]1CCNC1=O)C(O)S(=O)(=O)O (stereo not given in full)	60	> 50000	880	
CC(C)C[C@H](NC(=O)OCC1CC(=O)N(Cc2ccco2)C1)C(=O)N[C@H](C=O)C[C@@H]1CCNC1=O (stereo not given in full)	70	> 50000	550	
CC(C)C[C@H](NC(=O)OC[C@@H]1CCC(=O)N1Cc1cccc(C(F)(F)F)c1)C(=O)N[C@@H](C[C@@H]1CCNC1=O)C(O)S(=O)(=O)O (stereo not given in full)	50	> 50000	770	490
CC(C)C[C@H](NC(=O)OCC1CCN(Cc2ccccc2)C1=O)C(=O)N[C@H](C=O)C[C@@H]1CCNC1=O (stereo not given in full)	60	> 50000	790	
CC(C)C[C@H](NC(=O)OC[C@@H]1CCC(=O)N1Cc1cccc(Cl)c1)C(=O)N[C@@H](C[C@@H]1CCNC1=O)C(O)S(=O)(=O)O (stereo not given in full)	18	> 50000	100	120
CC(C)C[C@H](NC(=O)OCC1CC(=O)N(CC2CC3CCC2C3)C1)C(=O)N[C@H](C=O)C[C@@H]1CCNC1=O (stereo not given in full)	60	> 50000	160	120
CC(C)C[C@H](NC(=O)OC[C@@H]1CCC(=O)N1Cc1cccc(F)c1)C(=O)N[C@@H](C[C@@H]1CCNC1=O)C(O)S(=O)(=O)O (stereo not given in full)	240	> 50000	160	40
CC(C)C[C@H](NC(=O)OCC1CCN(C[C@H]2C[C@H]3C=C[C@@H]2C3)C1=O)C(=O)N[C@H](C=O)C[C@@H]1CCNC1=O (stereo not given in full)	80	> 50000	460	
CC(C)C[C@H](NC(=O)OC[C@@H]1CCC(=O)N1Cc1cccc(Cl)c1)C(=O)N[C@H](C=O)C[C@@H]1CCNC1=O	17	> 50000	110	110
CC(C)C[C@H](NC(=O)OC[C@@H]1CCC(=O)N1Cc1cccc(C(F)(F)F)c1)C(=O)N[C@H](C=O)C[C@@H]1CCNC1=O	50	> 50000	740	560
CC(C)C[C@H](NC(=O)OCC1CCN(Cc2ccccc2)C1=O)C(=O)N[C@@H](C[C@@H]1CCNC1=O)C(O)S(=O)(=O)O (stereo not given in full)	60	> 50000	820	
CC(C)C[C@H](NC(=O)OC[C@@H]1CCC(=O)N1CC1CCC(F)(F)CC1)C(=O)N[C@H](C=O)C[C@@H]1CCNC1=O	60	> 50000	550	
CC(C)C[C@H](NC(=O)OC[C@@H]1CCC(=O)N1Cc1ccco1)C(=O)N[C@H](C=O)C[C@@H]1CCNC1=O	60	> 50000	330	
CC(C)C[C@H](NC(=O)OCC1CC(=O)N(Cc2ccccc2)C1)C(=O)N[C@H](C=O)C[C@@H]1CCNC1=O (stereo not given in full)	80	> 50000	720	
CC(C)C[C@H](NC(=O)OC[C@@H]1CCC(=O)N1C[C@H]1C[C@@H]2CC[C@H]1C2)C(=O)N[C@H](C=O)C[C@@H]1CCNC1=O	70	> 50000	500	
CC(C)C[C@H](NC(=O)OCC1CCN(C[C@H]2C[C@H]3CC[C@@H]2C3)C1=O)C(=O)N[C@H](C=O)C[C@@H]1CCNC1=O (stereo not given in full)	90	> 50000	430	
CC(C)C[C@H](NC(=O)OC[C@H]1CCC(=O)N1CC1CCCCC1)C(=O)N[C@@H](C[C@@H]1CCNC1=O)C(O)S(=O)(=O)O (stereo not given in full)	80	> 50000	510	
CC(C)C[C@H](NC(=O)OCC1CC(=O)N(Cc2cccc(C(F)(F)F)c2)C1)C(=O)N[C@@H](C[C@@H]1CCNC1=O)C(O)S(=O)(=O)O (stereo not given in full)	70	> 50000	350	
CC(C)C[C@H](NC(=O)OC[C@@H]1CCC(=O)N1Cc1ccccc1)C(=O)N[C@H](C=O)C[C@@H]1CCNC1=O	130	> 50000	430	
CC(C)C[C@H](NC(=O)OC[C@@H]1CCC(=O)N1CCc1ccccc1)C(=O)N[C@H](C=O)C[C@@H]1CCNC1=O	140	> 50000	730	
CC(C)C[C@H](NC(=O)OCC1CCN(Cc2ccco2)C1=O)C(=O)N[C@H](C=O)C[C@@H]1CCNC1=O (stereo not given in full)	130	> 50000	1960	
